Experimental data taken from patent US7326731B2, “Muscarinic agonists” (Eli Lilly and Company, priority 2002, dated 2008).
Read-outs that look alike come from different tables or passages of the source.

Tested on: Male Sprague-Dawley rats
Conditions: six-hour delay

Nc1c2c(nc3ccccc13)CCCC2 [Tacrine, tacrine]
retention in the eight arm radial maze (3 mg/kg s.c. immediately after the sampling phase): not | retention in the eight arm radial maze (10 mg/kg s.c. immediately after the sampling phase): significantly improved retention
